Among the data in publication PMC6060382, “Inhibition of α-, β-, γ-, and δ-carbonic anhydrases from bacteria and diatoms with N′-aryl-N-hydroxy-ureas” (Journal of Enzyme Inhibition and Medicinal Chemistry, 2018) are Ki values, retold here.

Experiment in all cases: stopped-flow CO2 hydrase assay
For one experiment, the target named is T1, VchCAβ (Vibrio cholerae, UniProt Q9KUD6).
T1 construct: gene VC_0586
The experiment is classed as biochemical.

The target of the next experiment is T2, PgiCAβ (Porphyromonas gingivalis, UniProt B2RL07).
T2 construct: gene PGN_1533
T2 sequence (B2RL07 19-242): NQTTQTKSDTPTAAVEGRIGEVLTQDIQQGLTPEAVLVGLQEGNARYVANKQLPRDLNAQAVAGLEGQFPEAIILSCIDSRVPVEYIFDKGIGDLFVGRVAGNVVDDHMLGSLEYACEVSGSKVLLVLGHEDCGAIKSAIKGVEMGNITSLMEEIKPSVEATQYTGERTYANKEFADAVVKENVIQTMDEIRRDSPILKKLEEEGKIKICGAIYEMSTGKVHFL
The experiment is classed as biochemical. The note with it: CO2 hydration, 10 mM Tris pH 8.3, 0.1 M Na2SO4, 25 °C, 15 min preincubation.

A further experiment has as its target T3, VchCAγ (Vibrio cholerae, UniProt Q9KVT1).
T3 construct: gene VC_0058
The experiment is classed as biochemical. The note with it: CO2 hydration, 10 mM Tris pH 8.3, 0.1 M Na2SO4, 25 °C, 15 min preincubation.

In the next experiment the target is T4, TweCAδ (Conticribra weissflogii, UniProt Q5U9J1).
T4 construct: gene ca1
T4 sequence (Q5U9J1 1-281): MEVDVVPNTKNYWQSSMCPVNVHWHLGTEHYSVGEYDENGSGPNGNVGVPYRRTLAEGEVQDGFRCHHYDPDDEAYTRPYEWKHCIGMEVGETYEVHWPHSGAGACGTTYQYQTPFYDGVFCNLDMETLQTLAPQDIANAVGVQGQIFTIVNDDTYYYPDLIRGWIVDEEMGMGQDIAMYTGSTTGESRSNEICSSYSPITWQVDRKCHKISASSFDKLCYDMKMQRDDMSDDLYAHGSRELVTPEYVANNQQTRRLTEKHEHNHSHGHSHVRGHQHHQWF
The experiment is classed as biochemical. The note with it: CO2 hydration, 10 mM HEPES pH 7.5, 0.1 M Na2SO4, 25 °C, 15 min preincubation.

The next experiment addresses T5, PgiCAγ.
T5 construct: gene PgiCA
The experiment is classed as biochemical, Porphyromonas gingivalis. The following applies: CO2 hydration, 10 mM Tris pH 8.3, 0.1 M Na2SO4, 25 °C, 15 min preincubation.

The target of the next experiment is T6, VchCAα (Vibrio cholerae, UniProt Q9KMP6).
T6 construct: gene VC_A0274
T6 sequence (Q9KMP6 21-239 limits assumed): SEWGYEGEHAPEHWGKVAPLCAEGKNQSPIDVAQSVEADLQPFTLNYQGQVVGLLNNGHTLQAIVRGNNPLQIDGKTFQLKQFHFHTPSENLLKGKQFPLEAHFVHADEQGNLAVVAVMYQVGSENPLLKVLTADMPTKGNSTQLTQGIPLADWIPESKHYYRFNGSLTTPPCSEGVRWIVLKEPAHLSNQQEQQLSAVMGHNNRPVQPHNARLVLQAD
The experiment is classed as biochemical. The following applies: read-out: VchCAα; CO2 hydration, 10 mM HEPES pH 7.5, 0.1 M Na2SO4, 25 °C, 15 min preincubation.

Read-outs that look alike come from different tables or passages of the source.

T1 sequence (Q9KUD6 1-222): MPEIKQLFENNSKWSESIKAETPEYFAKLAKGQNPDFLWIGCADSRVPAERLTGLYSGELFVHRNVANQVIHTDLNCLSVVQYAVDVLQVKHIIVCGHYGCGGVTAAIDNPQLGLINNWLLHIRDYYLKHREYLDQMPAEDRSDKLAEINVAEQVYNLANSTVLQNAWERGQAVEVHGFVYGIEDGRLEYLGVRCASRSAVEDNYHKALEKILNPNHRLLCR
T3 sequence (Q9KVT1 1-184): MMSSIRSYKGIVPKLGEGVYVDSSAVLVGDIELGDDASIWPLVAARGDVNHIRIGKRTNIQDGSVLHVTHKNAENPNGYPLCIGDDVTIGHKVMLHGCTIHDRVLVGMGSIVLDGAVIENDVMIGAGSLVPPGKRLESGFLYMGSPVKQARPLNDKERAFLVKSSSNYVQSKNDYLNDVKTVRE

For `O=C(NO)Nc1ccccc1` [compound 1, 1: H], the Ki is 1.81 µM on VchCAβ (read-out: VchCAβ); over 10 µM at PgiCAβ (read-out: VchCAγ); over 10 µM on VchCAγ (read-out: VchCAγ); over 10 µM on TweCAδ (read-out: VchCAγ); 6.42 µM at PgiCAγ (read-out: PgiCAγ); 7.26 µM on VchCAα.

For `Cc1ccc(C)c(NC(=O)NO)c1` [compound 9, 9: 2,5-Me2], the Ki at VchCAβ (read-out: VchCAβ) was 0.0593 µM; at PgiCAβ (read-out: PgiCAβ) it was over 10 µM; on VchCAγ (read-out: VchCAγ), 5.5 µM; on TweCAδ (read-out: PgiCAβ) it was over 10 µM; on PgiCAγ (read-out: PgiCAγ) it was 0.0844 µM; on VchCAα, 0.0975 µM.

For `Cc1cc(C)cc(NC(=O)NO)c1` [compound 12, 12: 3,5-Me2], the Ki is over 10 µM at VchCAβ (read-out: VchCAα); over 10 µM on PgiCAβ (read-out: VchCAα); over 10 µM at VchCAγ (read-out: VchCAα); 0.0578 µM at TweCAδ (read-out: TweCAδ); 5.49 µM on PgiCAγ (read-out: PgiCAγ); over 10 µM at VchCAα.

As for `CCOC(=O)c1cccc(NC(=O)NO)c1` [compound 11, 11: 3-EtOOC], the Ki on VchCAβ (read-out: VchCAα) was over 10 µM; at PgiCAβ (read-out: VchCAα), over 10 µM; on VchCAγ (read-out: VchCAα) it was over 10 µM; at TweCAδ (read-out: TweCAδ), 8.49 µM; on PgiCAγ (read-out: VchCAα), over 10 µM; on VchCAα, over 10 µM.

On to `O=C(NO)Nc1ccccc1Cl` [compound 5, 5: 2-Cl], for which the Ki on VchCAβ (read-out: VchCAβ) is 0.0642 µM; at PgiCAβ (read-out: VchCAγ) it was over 10 µM; at VchCAγ (read-out: VchCAγ) it was over 10 µM; on TweCAδ (read-out: VchCAγ), over 10 µM; at PgiCAγ (read-out: PgiCAγ), 3.03 µM; at VchCAα it was 5.94 µM.

`O=C(NO)Nc1ccc(Oc2ccccc2)cc1` [compound 20, 20: 4-PhO]: the Ki on VchCAβ (read-out: VchCAα) was over 10 µM; on VchCAγ (read-out: VchCAα), over 10 µM; at TweCAδ (read-out: TweCAδ), 0.761 µM; at PgiCAγ (read-out: VchCAα), over 10 µM; on VchCAα it was over 10 µM.

For the molecule `COc1ccccc1NC(=O)NO` [compound 19, 19: 2-MeO], the Ki on VchCAβ (read-out: VchCAα) is over 10 µM; at VchCAγ (read-out: VchCAγ) it was 4.75 µM; on TweCAδ (read-out: TweCAδ) it was 2.88 µM; at PgiCAγ (read-out: VchCAα), over 10 µM; on VchCAα it was over 10 µM.

Consider `Cc1ccccc1NC(=O)NO` [compound 3, 3: 2-CH3], for which the Ki is 0.377 µM at VchCAβ (read-out: VchCAβ); over 10 µM at PgiCAβ (read-out: VchCAγ); over 10 µM on VchCAγ (read-out: VchCAγ); over 10 µM on TweCAδ (read-out: VchCAγ); 4.21 µM on PgiCAγ (read-out: PgiCAγ); 0.829 µM at VchCAα.

`O=C(NO)Nc1ccc(C(F)(F)F)cc1` [compound 17, 17: 4-CF3]: the Ki on VchCAβ (read-out: VchCAα) was over 10 µM; on PgiCAβ (read-out: VchCAα) it was over 10 µM; at VchCAγ (read-out: VchCAα) it was over 10 µM; on TweCAδ (read-out: TweCAδ), 4.64 µM; at PgiCAγ (read-out: PgiCAγ), 2.63 µM; on VchCAα, over 10 µM.

As to `O=C(NO)Nc1ccc([N+](=O)[O-])cc1` [compound 7, 7: 4-O2N], the Ki at VchCAβ (read-out: VchCAβ) was 0.0541 µM; at PgiCAβ (read-out: VchCAγ), over 10 µM; on VchCAγ (read-out: VchCAγ) it was over 10 µM; at TweCAδ (read-out: VchCAγ) it was over 10 µM; at PgiCAγ (read-out: PgiCAγ) it was 2.7 µM; on VchCAα, 0.509 µM.

On to `Cc1cc(NC(=O)NO)ccc1F` [compound 15, 15: 4-F-3-Me], for which the Ki on VchCAβ (read-out: VchCAα) is over 10 µM; on PgiCAβ (read-out: VchCAα), over 10 µM; at VchCAγ (read-out: VchCAα), over 10 µM; on TweCAδ (read-out: TweCAδ), 3.94 µM; on PgiCAγ (read-out: PgiCAγ), 2.88 µM; on VchCAα it was over 10 µM.

As to `O=C(NO)Nc1ccccc1[N+](=O)[O-]` [compound 8, 8: 2-O2N], the Ki on VchCAβ (read-out: VchCAβ) was 0.0525 µM; on PgiCAβ (read-out: PgiCAβ) it was over 10 µM; at VchCAγ (read-out: VchCAγ), 5.69 µM; on TweCAδ (read-out: PgiCAβ), over 10 µM; at PgiCAγ (read-out: PgiCAγ), 0.0823 µM; on VchCAα, 0.536 µM.

With `O=C(NO)Nc1cccc(Cl)c1` [compound 6, 6: 3-Cl], the Ki at VchCAβ (read-out: VchCAβ) is 0.0603 µM; at PgiCAβ (read-out: VchCAγ), over 10 µM; on VchCAγ (read-out: VchCAγ), over 10 µM; at TweCAδ (read-out: VchCAγ), over 10 µM; at PgiCAγ (read-out: PgiCAγ) it was 0.819 µM; on VchCAα, 4 µM.

As to `O=C(NO)Nc1ccc(F)cc1` [compound 10, 10: 4-F], the Ki at PgiCAβ (read-out: VchCAα), at VchCAγ (read-out: VchCAα), at TweCAδ (read-out: VchCAα), at PgiCAγ (read-out: VchCAα) and at VchCAα was over 10 µM throughout.

Turning to `Cc1ccc(NC(=O)NO)cc1` [compound 2, 2: 4-CH3], the Ki on VchCAβ (read-out: VchCAβ) is 0.483 µM; on PgiCAβ (read-out: VchCAγ), over 10 µM; at VchCAγ (read-out: VchCAγ), over 10 µM; at TweCAδ (read-out: VchCAγ), over 10 µM; on PgiCAγ (read-out: PgiCAγ), 0.298 µM; at VchCAα, 0.111 µM.

Consider `CSc1cccc(NC(=O)NO)c1` [compound 14, 14: 3-MeS], for which the Ki on VchCAβ (read-out: VchCAα) is over 10 µM; on PgiCAβ (read-out: VchCAα), over 10 µM; at TweCAδ (read-out: TweCAδ), 0.052 µM; on PgiCAγ (read-out: PgiCAγ) it was 0.0598 µM; on VchCAα it was over 10 µM.

On to `CCOc1ccccc1NC(=O)NO` [compound 13, 13: 2-EtO], for which the Ki at VchCAβ (read-out: VchCAα) was over 10 µM; on PgiCAβ (read-out: VchCAα), over 10 µM; on TweCAδ (read-out: TweCAδ) it was 0.0333 µM; at PgiCAγ (read-out: PgiCAγ) it was over 10 µM; on VchCAα, over 10 µM.

In the case of `O=C(NO)Nc1ccc(C(F)(F)F)cc1Cl` [compound 18, 18: 4-CF3-2-Cl], the Ki was over 10 µM on VchCAβ (read-out: VchCAα); 5.43 µM on VchCAγ (read-out: VchCAγ); 0.856 µM on TweCAδ (read-out: TweCAδ); over 10 µM at PgiCAγ (read-out: VchCAα); over 10 µM at VchCAα.

`O=C(NO)Nc1c(F)c(F)c(F)c(F)c1F` [compound 16, 16: F5]: the Ki on VchCAβ (read-out: VchCAα) was over 10 µM; on PgiCAβ (read-out: VchCAα) it was over 10 µM; at VchCAγ (read-out: VchCAα), over 10 µM; at TweCAδ (read-out: TweCAδ) it was 3.41 µM; at PgiCAγ (read-out: PgiCAγ), 3.48 µM; on VchCAα, over 10 µM.

With `O=C(NO)Nc1ccc(Cl)cc1` [compound 4, 4: 4-Cl], the Ki at VchCAβ (read-out: VchCAβ) was 0.541 µM; on PgiCAβ (read-out: VchCAγ) it was over 10 µM; on VchCAγ (read-out: VchCAγ) it was over 10 µM; on TweCAδ (read-out: TweCAδ), 8.74 µM; on PgiCAγ (read-out: PgiCAγ) it was 0.934 µM; at VchCAα, 4.41 µM.
